pEC50: −log10 of the molar value. The source made the active and inactive calls. No cut-off for these calls is given here. Square brackets hold non-standard residues; d marks the D form. Peptide text beside a SMILES is read from it. Nva = CCC[C@H](N)C(=O)O; Abu = CC[C@H](N)C(=O)O
Experiments:
[1] = biological target: T1, C3a anaphylatoxin chemotactic receptor (Homo sapiens, UniProt Q16581); experiment: Agonist activity at human C3aR expressed in CHO cells assessed as induction of ERK1/2 phosphorylation at Thr202/Tyr204 residues incubated for 10 mins by AlphaLISA assay; type: functional, cell-based; settings: for EC50: read-out: pEC50 (converted); for pEC50: read-out: EC50
T1 sequence (Q16581 whole entry): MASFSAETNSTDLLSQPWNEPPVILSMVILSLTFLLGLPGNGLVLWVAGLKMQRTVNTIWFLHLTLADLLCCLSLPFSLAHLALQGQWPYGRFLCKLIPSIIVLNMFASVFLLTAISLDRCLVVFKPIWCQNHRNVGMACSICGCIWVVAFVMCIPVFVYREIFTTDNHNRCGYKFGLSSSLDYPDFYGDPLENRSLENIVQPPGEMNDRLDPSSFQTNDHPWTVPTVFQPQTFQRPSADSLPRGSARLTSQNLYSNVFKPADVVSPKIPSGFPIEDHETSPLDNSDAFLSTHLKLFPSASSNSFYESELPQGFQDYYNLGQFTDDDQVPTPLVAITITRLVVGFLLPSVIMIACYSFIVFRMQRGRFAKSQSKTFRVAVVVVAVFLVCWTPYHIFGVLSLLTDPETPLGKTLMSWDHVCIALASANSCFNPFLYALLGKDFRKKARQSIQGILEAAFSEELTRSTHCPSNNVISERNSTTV

[2] = biological target: T2, C5a anaphylatoxin chemotactic receptor 1 (Homo sapiens, UniProt P21730); experiment: Agonist activity at human C5aR1 expressed in CHO cells assessed as induction of ERK1/2 phosphorylation at Thr202/Tyr204 residues incubated for 10 mins by AlphaLISA assay; type: functional, cell-based
T2 sequence (P21730 whole entry): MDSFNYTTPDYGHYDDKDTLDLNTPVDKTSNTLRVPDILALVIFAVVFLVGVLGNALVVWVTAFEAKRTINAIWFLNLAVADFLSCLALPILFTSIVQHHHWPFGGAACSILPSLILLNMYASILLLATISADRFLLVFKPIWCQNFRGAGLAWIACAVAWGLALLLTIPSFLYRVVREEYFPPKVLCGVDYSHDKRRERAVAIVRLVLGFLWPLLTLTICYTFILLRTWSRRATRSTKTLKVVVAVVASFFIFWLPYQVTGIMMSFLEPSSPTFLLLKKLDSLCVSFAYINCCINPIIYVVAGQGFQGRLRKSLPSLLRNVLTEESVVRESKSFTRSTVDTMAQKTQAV

[3] = organism: Homo sapiens; experiment: Selectivity ratio of EC50 for agonist activity at human C3aR expressed in CHO cells to EC50 for agonist activity at human C5aR1 expressed in CHO cells; type: cell-based
[4] = biological target: T3, C5a anaphylatoxin chemotactic receptor 1 (Mus musculus, UniProt P30993); experiment: Agonist activity at C5aR1 in mouse RAW264.7 cells assessed as induction of ERK1/2 phosphorylation at Thr202/Tyr204 residues incubated for 10 mins by AlphaLISA assay; type: functional, cell-based
T3 sequence (P30993 whole entry): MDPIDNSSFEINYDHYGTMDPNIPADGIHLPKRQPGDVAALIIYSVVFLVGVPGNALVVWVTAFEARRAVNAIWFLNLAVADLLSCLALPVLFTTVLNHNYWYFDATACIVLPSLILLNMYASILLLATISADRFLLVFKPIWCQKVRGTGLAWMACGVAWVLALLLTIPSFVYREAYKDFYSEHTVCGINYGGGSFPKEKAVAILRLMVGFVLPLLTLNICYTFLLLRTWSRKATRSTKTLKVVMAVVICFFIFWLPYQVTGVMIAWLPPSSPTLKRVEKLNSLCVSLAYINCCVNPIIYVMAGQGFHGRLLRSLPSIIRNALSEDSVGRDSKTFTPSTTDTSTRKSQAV

[5] = biological target: T4, C5a anaphylatoxin chemotactic receptor 1 (Mus musculus) (UniProt P30993); experiment: Agonist activity at C5aR1 in mouse RAW264.7 cells assessed as induction of ERK1/2 phosphorylation at Thr202/Tyr204 residues at up to 100 uM incubated for 10 mins in presence of JPE1375 by AlphaLISA assay; type: functional, cell-based
T4 sequence (whole entry): T3 sequence (P30993 whole entry)

[6] = tested on: MDM; experiment: Antiinflammatory activity in human MDM cells assessed as suppression of LPS-induced IL-6 production at 1 uM measured after 24 hrs by ELISA; type: functional, cell-based
[7] = tested on: MDM; experiment: Antiinflammatory activity in human MDM cells assessed as suppression of LPS-induced TNFalpha production at 1 uM measured after 24 hrs by ELISA; type: functional, cell-based
[8] = Ratio of EC50 for agonist activity at C5aR1 in mouse RAW264.7 cells to EC50 for agonist activity at human C5aR1 expressed in CHO cells; type: cell-based
[9] = tested on: Mus musculus; experiment: Antiinflammatory activity in C57BL/6J mouse assessed as polymorphonuclear leucocyte mobilization at 50 ug/kg, iv measured after 30 mins by hemacolor-staining based microscopic analysis relative to control; type: functional; settings: dose 50 µg/kg, 0.5 h
[10] = biological target: T4, C5a anaphylatoxin chemotactic receptor 1 (Mus musculus); experiment: Agonist activity at C5aR1 in mouse RAW264.7 cells assessed as induction of ERK1/2 phosphorylation at Thr202/Tyr204 residues at up to 100 uM incubated for 10 mins by AlphaLISA assay; type: functional, cell-based

SMILES	EC50 [1]	pEC50 [2]	Ratio EC50 [3]	other results
CC(C)C[C@H](NC(=O)[C@@H]1CCCN1C(=O)[C@H](CCCCN)NC(=O)[C@@H](N)Cc1ccccc1)C(=O)N[C@@H](C)C(=O)N[C@@H](C)C(=O)N[C@@H](C)C(=O)N[C@@H](CCCNC(=N)N)C(=O)O	17300 nM			
CC(C)C[C@H](NC(=O)[C@@H]1CCCN1C(=O)[C@H](CCCCN)NC(=O)[C@@H](N)Cc1ccccc1)C(=O)N1CCC[C@H]1C(=O)N[C@@H](C)C(=O)N[C@H](C)C(=O)N[C@@H](CCCNC(=N)N)C(=O)O	54800 nM			
CC(C)C[C@H](NC(=O)[C@H](C)NC(=O)[C@H](CC(C)C)NC(=O)[C@@H]1CCCN1C(=O)[C@H](CCCCN)NC(=O)[C@@H](N)Cc1ccccc1)C(=O)N[C@H](C)C(=O)N[C@@H](CCCNC(=N)N)C(=O)O	435 nM	8.36	109	
CC(C)C[C@H](NC(=O)[C@@H]1CCCN1C(=O)[C@H](CCCCN)NC(=O)[C@@H](N)Cc1ccccc1)C(=O)N[C@@H](C)C(=O)N[C@@H](C)C(=O)N[C@H](C)C(=O)N[C@@H](CCCNC(=N)N)C(N)=O				pEC50 [1]: < 4.00
CC(=O)N[C@@H](Cc1ccccc1)C(=O)N[C@H]1CCCCNC(=O)[C@H](CCCNC(=N)N)NC(=O)[C@@H](C)NC(=O)[C@H](C)NC(=O)[C@H](C)NC(=O)[C@H](CC(C)C)NC(=O)[C@@H]2CCCN2C1=O				pEC50 [1]: < 4.00
CC[C@H](NC(=O)[C@H](C)NC(=O)[C@H](CC(C)C)NC(=O)[C@@H]1CCCN1C(=O)[C@H](CCCCN)NC(=O)[C@H](Cc1ccccc1)NC(C)=O)C(=O)N[C@H](C)C(=O)N[C@@H](CCCNC(=N)N)C(=O)O (Ac-FKPLA[Abu][dA]R-OH)	14500 nM	8.24	2420	pEC50 [4]: 5.64; Activity [5]: inactive; Activity [6]: Active; Activity [7]: Active; Ratio EC50 [8]: 1000; Activity [9]: 41%
C[C@H](NC(=O)[C@H](C)NC(=O)[C@@H](NC(=O)[C@@H]1CCCN1C(=O)[C@H](CCCCN)NC(=O)[C@@H](N)Cc1ccccc1)[C@@H](C)O)C(=O)N[C@H](C)C(=O)N[C@@H](CCCNC(=N)N)C(=O)O	7010 nM	6.05	7.8	
CC(C)C[C@H](NC(=O)[C@H](C)NC(=O)[C@@H](NC(=O)[C@@H]1CCCN1C(=O)[C@H](CCCNC(=N)N)NC(=O)[C@@H](N)Cc1ccccc1)[C@@H](C)O)C(=O)N[C@H](C)C(=O)N[C@@H](CCCNC(=N)N)C(=O)O	9.04 nM	7.61	0.4	
CC[C@@H](C)[C@@H](NC(=O)[C@H](C)NC(=O)[C@H](CC(C)C)NC(=O)[C@@H]1CCCN1C(=O)[C@H](CCCCN)NC(=O)[C@H](Cc1ccccc1)NC(C)=O)C(=O)N[C@@H](C)C(=O)N[C@@H](CCCNC(=N)N)C(=O)O	429 nM	8.81	214	
CC(C)C[C@H](NC(=O)[C@@H]1CCCN1C(=O)[C@H](CC(C)C)NC(=O)[C@@H]1CCCN1C(=O)[C@H](C)NC(=O)[C@@H](N)Cc1ccccc1)C(=O)N[C@H](C)C(=O)N[C@@H](CCCNC(=N)N)C(=O)O	282 nM	6.15	0.4	
CCC[C@H](NC(=O)[C@H](C)NC(=O)[C@H](CC(C)C)NC(=O)[C@@H]1CCCN1C(=O)[C@H](CCCCN)NC(=O)[C@H](Cc1ccccc1)NC(C)=O)C(=O)N[C@@H](C)C(=O)N[C@@H](CCCNC(=N)N)C(=O)O (Ac-FKPLA[Nva]AR-OH)	752 nM			
CC(=O)N[C@@H](Cc1ccccc1)C(=O)N[C@@H](CCCCN)C(=O)N1CCC[C@H]1C(=O)N[C@@H](CC(C)C)C(=O)N[C@@H](C)C(=O)N[C@@H](Cc1ccccc1)C(=O)N[C@H](C)C(=O)N[C@@H](CCCNC(=N)N)C(=O)O (Ac-FKPLAF[dA]R-OH)	3760 nM	7.13	51.5	
CC(C)C[C@H](NC(=O)[C@H](C)NC(=O)[C@@H](NC(=O)[C@@H]1CCCN1C(=O)[C@H](CCCCN)NC(=O)[C@@H](N)Cc1ccccc1)[C@@H](C)O)C(=O)N[C@H](C)C(=O)N[C@@H](CCCNC(=N)N)C(=O)O	37.1 nM	7.98	3.7	
CC(C)C[C@H](NC(=O)[C@@H]1CCCN1C(=O)[C@H](CC(C)C)NC(=O)[C@@H]1CCCN1C(=O)[C@H](CCCCN)NC(=O)[C@H](C)N)C(=O)N[C@H](C)C(=O)N[C@@H](CCCNC(=N)N)C(=O)O	631 nM	4.72	0.033	
CC(C)C[C@H](NC(=O)[C@@H]1CCCN1C(=O)[C@H](C)NC(=O)[C@@H]1CCCN1C(=O)[C@H](CCCCN)NC(=O)[C@@H](N)Cc1ccccc1)C(=O)N[C@H](C)C(=O)N[C@@H](CCCNC(=N)N)C(=O)O	11 nM	7.35	0.25	
CC(C)C[C@H](NC(=O)[C@@H]1CCCN1C(=O)[C@H](CC(C)C)NC(=O)[C@H](C)NC(=O)[C@H](CCCCN)NC(=O)[C@@H](N)Cc1ccccc1)C(=O)N[C@H](C)C(=O)N[C@@H](CCCNC(=N)N)C(=O)O	61.9 nM	7.71	3.26	
CC(=O)N[C@@H](Cc1ccccc1)C(=O)N[C@@H](CCCCN)C(=O)N1CCC[C@H]1C(=O)N[C@@H](CC(C)C)C(=O)N[C@@H](C)C(=O)N[C@H](C(=O)N[C@H](C)C(=O)N[C@@H](CCCNC(=N)N)C(=O)O)[C@@H](C)O	69800 nM	7.47	2050	
CC(C)C[C@H](NC(=O)[C@H](C)NC(=O)[C@H](CC(C)C)NC(=O)[C@@H]1CCCN1C(=O)[C@H](CCCCN)NC(=O)[C@H](C)N)C(=O)N[C@H](C)C(=O)N[C@@H](CCCNC(=N)N)C(=O)O	532 nM	5.84	0.4	
CC(=O)N[C@@H](Cc1ccccc1)C(=O)N[C@@H](CCCCN)C(=O)N1CCC[C@H]1C(=O)N[C@@H](CC(C)C)C(=O)N[C@@H](C)C(=O)N[C@@H](C)C(=O)N[C@H](C)C(=O)N[C@@H](CCCNC(=N)N)C(=O)O (Ac-FKPLAA[dA]R-OH)				pEC50 [4]: 4.64; Activity [5]: inactive
CC(C)C[C@H](NC(=O)[C@@H]1CCCN1C(=O)[C@H](CCCCN)NC(=O)[C@@H](N)Cc1ccccc1)C(=O)N[C@@H](C)C(=O)N[C@@H](C)C(=O)N[C@H](C)C(=O)N[C@@H](CCCNC(=N)N)C(=O)O	131000 nM			Activity [10]: inactive
CC(C)C[C@H](NC(=O)[C@@H]1CCCN1C(=O)[C@H](CC(C)C)NC(=O)[C@@H]1CCCN1C(=O)[C@H](CCCCN)NC(=O)[C@@H](N)Cc1ccccc1)C(=O)N[C@H](C)C(=O)N[C@@H](CCCNC(=N)N)C(=O)O (H-FKPLPL[dA]R-OH)	129 nM			

From ChEMBL document CHEMBL5055669, “Development of Potent and Selective Agonists for Complement C5a Receptor 1 with In Vivo Activity” (J Med Chem, 2021)
